Test results reported in PubChem BioAssay AID256 (DTP/NCI, 2004).
Values joined by “and” are separate entries in the source; they are usually repeats but may differ in a detail not shown here. Equal entries are not always repeated. Inconclusive results and toxic doses are left out. The calls were made as follows: active = survival T/C of 150% or more; inactive = T/C below 125% in these data.

Test system: CD2F1 mice, L1210 leukemia ip, survival T/C
Experiment: NCI In Vivo Anticancer Drug Screen. Data for tumor model L1210 Leukemia (intraperitoneal) in CD2F1 (CDF1) mice
Details: higher = longer survival
How it was run: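 Tumor-bearing mice (transplanted tumor) were split into treated and vehicle control groups, and the measured endpoint of each treated group was divided by that of its vehicle controls.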

[1] = endpoint: mean survival time, dose: 100.0 mg/kg/injection, schedule: Q01DX009 (ip), vehicle: saline
[2] = endpoint: mean survival time, dose: 200.0 mg/kg/injection, schedule: Q01DX009 (ip), vehicle: saline
[3] = endpoint: mean survival time, dose: 400.0 mg/kg/injection, schedule: Q01DX009 (ip), vehicle: saline
[4] = endpoint: mean survival time, dose: 25.0 mg/kg/injection, schedule: Q04DX003 (ip), vehicle: saline
[5] = endpoint: mean survival time, dose: 50.0 mg/kg/injection, schedule: Q04DX003 (ip), vehicle: saline
[6] = endpoint: mean survival time, dose: 100.0 mg/kg/injection, schedule: Q01DX001 (ip), vehicle: saline with Tween-80
[7] = endpoint: mean survival time, dose: 200.0 mg/kg/injection, schedule: Q01DX001 (ip), vehicle: saline with Tween-80
[8] = endpoint: mean survival time, dose: 100.0 mg/kg/injection, schedule: Q01DX009 (ip), vehicle: saline with Tween-80
[9] = endpoint: mean survival time, dose: 100.0 mg/kg/injection, schedule: Q04DX003 (ip), vehicle: saline with Tween-80
[10] = endpoint: mean survival time, dose: 200.0 mg/kg/injection, schedule: Q04DX003 (ip), vehicle: saline with Tween-80
[11] = endpoint: mean survival time, dose: 400.0 mg/kg/injection, schedule: Q04DX003 (ip), vehicle: saline with Tween-80
[12] = endpoint: mean survival time, dose: 50.0 mg/kg/injection, schedule: Q04DX002 (ip), vehicle: saline with Tween-80
[13] = endpoint: mean survival time, dose: 200.0 mg/kg/injection, schedule: Q01DX009 (ip), vehicle: saline with Tween-80
[14] = endpoint: mean survival time, dose: 400.0 mg/kg/injection, schedule: Q01DX001 (ip), vehicle: saline with Tween-80
[15] = endpoint: mean survival time, dose: 400.0 mg/kg/injection, schedule: Q01DX009 (ip), vehicle: saline with Tween-80

Measured: T/C

COc1cc(/C=C/C(=O)O)ccc1OC(C)=O
inactive: [1] 98 % of control | [2] 100 % of control | [3] 93 % of control

C[N+](C)(C)c1cc2c(nn1)Nc1ccccc1S2
inactive: endpoint: mean survival time, dose: 3.12 mg/kg/injection, schedule: Q01DX009 (ip), vehicle: Klucel (hydroxypropylcellulose) (HPC) 97 % of control and 100 % of control | endpoint: mean survival time, dose: 6.25 mg/kg/injection, schedule: Q01DX009 (ip), vehicle: Klucel (hydroxypropylcellulose) (HPC) 102 % of control and 103 % of control | endpoint: mean survival time, dose: 12.5 mg/kg/injection, schedule: Q01DX009 (ip), vehicle: Klucel (hydroxypropylcellulose) (HPC) 87 % of control and 100 % of control | endpoint: mean survival time, dose: 25.0 mg/kg/injection, schedule: Q01DX009 (ip), vehicle: Klucel (hydroxypropylcellulose) (HPC) 102 % of control and 103 % of control | [4] 111 % of control | endpoint: mean survival time, dose: 50.0 mg/kg/injection, schedule: Q01DX009 (ip), vehicle: Klucel (hydroxypropylcellulose) (HPC) 94 % of control and 100 % of control | [5] 117 % of control | endpoint: mean survival time, dose: 100.0 mg/kg/injection, schedule: Q01DX009 (ip), vehicle: Klucel (hydroxypropylcellulose) (HPC) 96 % of control and 103 % of control | endpoint: mean survival time, dose: 100.0 mg/kg/injection, schedule: Q04DX003 (ip), vehicle: saline 109 % of control

NS(=O)(=O)O
inactive: endpoint: mean survival time, dose: 12.5 mg/kg/injection, schedule: Q04DX003 (ip), vehicle: saline 98 % of control | [4] 110 % of control | [5] 102 % of control

C=C[CH2][Sn]([CH2]C=C)([c]1ccccc1)[c]1ccccc1
inactive: endpoint: mean survival time, dose: 6.25 mg/kg/injection, schedule: Q01DX009 (ip), vehicle: saline with Tween-80 89 % of control | endpoint: median survival time, dose: 25.0 mg/kg/injection, schedule: Q04DX002 (ip), vehicle: saline with Tween-80 112 % of control

NNC(=O)CCCCCCCCCCCCCO
inactive: endpoint: mean survival time, dose: 50.0 mg/kg/injection, schedule: Q01DX001 (ip), vehicle: saline with Tween-80 98 % of control | [6] 101 % of control | [7] 101 % of control

CCCC[P+](CO)(CCCC)CCCC
inactive: endpoint: mean survival time, dose: 7.5 mg/kg/injection, schedule: Q04DX003 (ip), vehicle: saline 103 % of control | endpoint: mean survival time, dose: 15.0 mg/kg/injection, schedule: Q04DX003 (ip), vehicle: saline 98 % of control | endpoint: mean survival time, dose: 30.0 mg/kg/injection, schedule: Q04DX003 (ip), vehicle: saline 101 % of control

O=C(O)/C=C\C(=O)OCc1ccc(Cl)cc1Cl
inactive: [8] 106 % of control | [9] 91 % of control | [10] 101 % of control | [11] 95 % of control

CCCCCC/C=N\N=C(N)N
inactive: endpoint: mean survival time, dose: 75.0 mg/kg/injection, schedule: Q01DX001 (ip), vehicle: saline 103 % of control

Nc1cc(C(=O)O)c(O)c(Cl)c1O
inactive: endpoint: mean survival time, dose: 12.5 mg/kg/injection, schedule: Q04DX002 (ip), vehicle: saline with Tween-80 93 % of control | endpoint: mean survival time, dose: 25.0 mg/kg/injection, schedule: Q04DX002 (ip), vehicle: saline with Tween-80 90 % of control | [12] 97 % of control

Clc1ccc2c(CBr)ccnc2c1
inactive: endpoint: mean survival time, dose: 50.0 mg/kg/injection, schedule: Q04DX003 (ip), vehicle: other 110 % of control | endpoint: mean survival time, dose: 100.0 mg/kg/injection, schedule: Q04DX003 (ip), vehicle: other 112 % of control

NC1=NCCCN1
inactive: endpoint: mean survival time, dose: 3.0 mg/kg/injection, schedule: Q01DX009 (ip), vehicle: saline sonified 109 % of control | endpoint: mean survival time, dose: 6.0 mg/kg/injection, schedule: Q01DX009 (ip), vehicle: saline sonified 111 % of control | endpoint: mean survival time, dose: 12.0 mg/kg/injection, schedule: Q01DX009 (ip), vehicle: saline sonified 94 % of control

CC(=O)/C=C\c1cc(C)ccc1O
inactive: endpoint: mean survival time, dose: 100.0 mg/kg/injection, schedule: Q01DX001 (ip), vehicle: Klucel (hydroxypropylcellulose) (HPC) 95 % of control | endpoint: mean survival time, dose: 200.0 mg/kg/injection, schedule: Q01DX001 (ip), vehicle: Klucel (hydroxypropylcellulose) (HPC) 103 % of control | endpoint: mean survival time, dose: 400.0 mg/kg/injection, schedule: Q01DX001 (ip), vehicle: Klucel (hydroxypropylcellulose) (HPC) 100 % of control

O=[N+]([O-])c1cc(Cl)c(Cl)cc1[N+](=O)[O-]
inactive: [6] 90 % of control | [7] 90 % of control

Cc1cc2ccccc2[n+](C)c1-c1ccccc1Cl (tested in a mixture with another compound)
inactive: endpoint: mean survival time, dose: 5.0 mg/kg/injection, schedule: Q01DX009 (ip), vehicle: saline 104 % of control | endpoint: mean survival time, dose: 5.0 mg/kg/injection, schedule: Q04DX003 (ip), vehicle: saline 101 % of control | endpoint: mean survival time, dose: 10.0 mg/kg/injection, schedule: Q01DX009 (ip), vehicle: saline 100 % of control | endpoint: mean survival time, dose: 10.0 mg/kg/injection, schedule: Q04DX003 (ip), vehicle: saline 101 % of control | endpoint: mean survival time, dose: 20.0 mg/kg/injection, schedule: Q04DX003 (ip), vehicle: saline 105 % of control

CO/N=C/c1ccc([N+](=O)[O-])s1
inactive: endpoint: mean survival time, dose: 50.0 mg/kg/injection, schedule: Q01DX009 (ip), vehicle: saline 116 % of control

CCOC(=O)C(=Cc1ccc(O)c(OC)c1)C(=O)OCC
inactive: [6] 104 % of control | [8] 93 % of control | [7] 101 % of control | [13] 101 % of control | [14] 108 % of control | [15] 101 % of control

Cc1c([N+](=O)[O-])cc2c(c1[N+](=O)[O-])C(C)(C)CC2(C)C
inactive: [8] 100 % of control | [9] 96 % of control | [13] 98 % of control | [10] 105 % of control | [15] 96 % of control | [11] 94 % of control

O=S(=O)(Cc1ccc(CS(=O)(=O)c2ccc(Cl)cc2)cc1)c1ccc(Cl)cc1
inactive: endpoint: mean survival time, dose: 12.5 mg/kg/injection, schedule: Q01DX009 (ip), vehicle: saline with Tween-80 91 % of control | endpoint: mean survival time, dose: 25.0 mg/kg/injection, schedule: Q01DX009 (ip), vehicle: saline with Tween-80 90 % of control | endpoint: mean survival time, dose: 50.0 mg/kg/injection, schedule: Q01DX009 (ip), vehicle: saline with Tween-80 91 % of control

Cc1ccc(S(=O)(=O)N=P(c2ccccc2)(c2ccccc2)c2ccccc2)cc1
inactive: [8] 93 % of control and 94 % of control | [13] 88 % of control | [15] 91 % of control and 93 % of control

O=C(O)CC1CCC(CC(=O)O)CC1 (configuration not stated)
inactive: [8] 101 % of control | [13] 104 % of control | [15] 101 % of control

O=C(Cc1ccccc1)SC(=O)Cc1ccccc1
inactive: [6] 102 % of control | [7] 94 % of control | [14] 102 % of control

C[n+]1ccccc1
inactive: [1] 97 % of control | endpoint: mean survival time, dose: 100.0 mg/kg/injection, schedule: Q04DX002 (ip), vehicle: other 96 % of control | [2] 101 % of control | endpoint: mean survival time, dose: 200.0 mg/kg/injection, schedule: Q04DX002 (ip), vehicle: other 93 % of control | [3] 97 % of control | endpoint: mean survival time, dose: 400.0 mg/kg/injection, schedule: Q04DX002 (ip), vehicle: other 96 % of control

NC(=O)N/N=C1/CCCC2CCCCC12 (configuration not stated)
inactive: endpoint: mean survival time, dose: 150.0 mg/kg/injection, schedule: Q04DX003 (ip), vehicle: saline with Tween-80 93 % of control | endpoint: mean survival time, dose: 300.0 mg/kg/injection, schedule: Q04DX003 (ip), vehicle: saline with Tween-80 89 % of control

C=C1C2C(c3ccccc3)=CC(C1(C)C(Cl)Cl)C(C#N)(C#N)C2(C#N)C#N (configuration not stated)
inactive: [12] 96 % of control | endpoint: mean survival time, dose: 100.0 mg/kg/injection, schedule: Q04DX002 (ip), vehicle: saline with Tween-80 108 % of control | endpoint: mean survival time, dose: 200.0 mg/kg/injection, schedule: Q04DX002 (ip), vehicle: saline with Tween-80 100 % of control
